Experimental data as given in PubChem BioAssay AID2823 (Broad Institute, 2010).
pIC50: −log10 of the molar value. The source made the active and inactive calls. How the calls were made is not given here.

Target: RanGTP-importin-beta complex (human Ran / KPNB1)
Test: Ran–importin-beta interaction inhibitors, confirmation, biochemical, FRET, CFP/YFP, cell-free homogeneous (AID 2823)
Conditions: CFP-Ran/YFP-importin-beta FRET ratio

Compound	IC50	pIC50
CN(C)S(=O)(=O)c1cccc(NC(=O)CNC2CCCCC2)c1	> 50 µM (inactive)	–
CCCCc1c(C)c(C#N)c2nc3ccccc3n2c1Nc1c(C)n(C)n(-c2ccccc2)c1=O	–	4.35
COC(=O)c1n[nH]c2ccccc12	–	4.32
CCOc1ccc(NC(=O)CN2C(=O)COc3ccc(Cl)cc32)cc1	> 50 µM (inactive)	–
CCN(CCO)C(=S)Nc1cc(C(=O)OC)ccc1C(=O)OC	> 50 µM (inactive)	–
C=CCn1c(O)c(N=NC(=S)Nc2ccccc2F)c2cc(S(=O)(=O)N3CCOCC3)ccc21	> 50 µM (inactive)	–
CC1=NN(C(=O)c2ccccc2)C(O)(c2ccc(Br)cc2)C1 (centres undefined)	> 50 µM (inactive)	–
CCOc1ccc(C2C(C(=O)OC)=CN(CCOC)C=C2C(=O)OC)cc1	–	4.88
CC(C)SCC(=O)Nc1ncc2c(n1)-c1ccccc1CC2	–	5.00
CCN(CC)CCCNC(=S)N(Cc1cccs1)Cc1cc2cc3c(cc2[nH]c1=O)OCCO3	> 50 µM (inactive)	–
O=C(Nc1cccc(-c2nc3ccccc3s2)c1)c1cccs1	> 50 µM (inactive)	–
CCN1C(=O)C2(C(C#N)=C(N)Oc3n[nH]c(C(C)C)c32)c2ccccc21 (centres undefined)	> 50 µM (inactive)	–
Oc1c(C(Nc2nc3ccccc3s2)c2ccco2)ccc2cccnc12 (centres undefined)	> 50 µM (inactive)	–
CO/N=C\c1cc(C(=O)c2ccc(Cl)cc2Cl)cn1C	> 50 µM (inactive)	–
Cc1ccc(Cl)cc1N1C(=O)CC(Sc2ncccn2)C1=O (centres undefined)	> 50 µM (inactive)	–
CCCCCN(C(=O)CN(C)Cc1ccc(OC)cc1OC)c1c(N)n(CCCC)c(=O)[nH]c1=O	> 50 µM (inactive)	–
CC(=O)c1cccc(OCC(=O)N(C)CC(=O)Nc2ccc(F)cc2)c1	> 50 µM (inactive)	–
COc1ccc(OCC(=O)NNc2c3ccccc3nc3ccccc23)cc1	> 50 µM (inactive)	–
COc1ccc2c(c1)O/C(=C\c1ccco1)C2=O	–	4.74
Cc1ccc(S(=O)(=O)NCCN(CCNS(=O)(=O)c2ccc(C)cc2)S(C)(=O)=O)cc1	> 50 µM (inactive)	–
Cc1cc(Nc2ccccc2)nn1C(=O)c1ccccc1	> 50 µM (inactive)	–
CCN(CC)S(=O)(=O)c1ccc(/C=C/C(=O)Nc2ccc(F)cc2F)cc1	> 50 µM (inactive)	–
O=C(O)Cn1cc(/C=C2/SC(=O)N(CC(=O)N3CCCCCC3)C2=O)c2ccccc21	–	4.36
CCn1nc(NC(=O)c2ccccn2)c2cc3cccc(C)c3nc21	–	5.57
COc1ccc(-n2cnc3cc(NCc4ccco4)ccc32)cc1	> 50 µM (inactive)	–
Fc1ccccc1N1CCN(c2nc3ccccc3n3nnnc23)CC1	–	4.42

Compound	IC50	pIC50
COc1cc(C2C3CN(C)CC=C3C(C#N)=C(N)C2(C#N)C#N)ccc1OC(C)C (centres undefined)	–	4.92
COCCCn1c(N)c(C(=O)Nc2ccccc2)c2nc3ccccc3nc21	–	4.39
CCc1ccc(C2C3=C(CC(C)(C)CC3=O)Nc3c2c(=O)[nH]c2nc(C)nn32)cc1 (centres undefined)	–	5.15
CCN1C(=O)/C(=C2/Sc3ccccc3N2CCCS(=O)(=O)O)SC1=S	–	4.82
CCOCCCNC(=O)/C(C#N)=C/c1cc(Br)c(O)c(Br)c1	–	4.90
O=C(CN1CCOCC1)NNc1c2ccccc2nc2ccccc12	> 50 µM (inactive)	–
c1ccc2sc(NC3=NCN(CCN4CCOCC4)CN3)nc2c1	> 50 µM (inactive)	–
O=C(O)c1cccc(Nc2c3ccccc3nc3ccccc23)c1	> 50 µM (inactive)	–
Nc1ccccc1C(=O)NNc1c2ccccc2nc2ccccc12	> 50 µM (inactive)	–
N#Cc1ccccc1NC(=O)C1CC(=O)N(c2ccc3c4c(cccc24)CC3)C1 (centres undefined)	> 50 µM (inactive)	–
COc1ccc(C(CNC(=O)c2cc(F)c(F)c(F)c2F)N2CCOCC2)cc1 (centres undefined)	> 50 µM (inactive)	–
Cc1c(S(=O)(=O)N2CCCC(C(=O)O)C2)cnn1C (centres undefined)	> 50 µM (inactive)	–
CC1(C(=O)O)C=CCN1C(=O)c1ccccc1 (centres undefined)	> 50 µM (inactive)	–
CCOC(=O)c1ccc(NC(=O)CSc2nnc(C3CCCCC3)n2C)cc1	> 50 µM (inactive)	–
CCN(CC)S(=O)(=O)c1ccc(NC(=O)c2cccc3c2C(=O)N(CCOC)C3)cc1	> 50 µM (inactive)	–
O=C(Cc1ccccc1)NNc1c2ccccc2nc2ccccc12	> 50 µM (inactive)	–
COc1cc(/C=N/NC(=O)c2cc(C)oc2C)ccc1O	> 50 µM (inactive)	–
Oc1c(C=Nc2ccccc2)sc2ccccc12	–	4.56
CCOC(=O)N1CCN(/C=C(\C#N)c2nc3ccccc3s2)CC1	> 50 µM (inactive)	–
CCc1ccc(C2C(C#N)=C(N)SC(N)=C2C#N)cc1	> 50 µM (inactive)	–
CCOc1ccc(C)cc1S(=O)(=O)Nc1ccc(Cl)cn1	> 50 µM (inactive)	–
CCOC(=O)c1ccc(NC(=O)CSc2nc(C)nc3c2c(=O)n(C)c(=O)n3C)cc1	> 50 µM (inactive)	–
COc1cc(SC)ccc1C(=O)Nc1nc(C)cs1	> 50 µM (inactive)	–
Cc1cc(C)c2c(n1)nn1c(NCCCN(C)C)cc(C)nc21	–	4.65
Cc1ccc(NC(=O)Cn2nc(C(F)(F)F)c3c2CCC3)cc1	> 50 µM (inactive)	–
CCCCN(C)C(=O)c1cccc(OC2CCN(CC(C)(C)C)CC2)c1	> 50 µM (inactive)	–

Compound	IC50	pIC50
COc1ccc(-n2c(N)c(C(=O)NCc3ccco3)c3nc4ccccc4nc32)cc1OC	–	4.34
COC(=O)Nc1ccc(NC(C)=O)cc1	> 50 µM (inactive)	–
COc1ccc(C(=O)c2cc3ccc(O)cc3oc2=O)cc1	–	4.78
CCOC(=O)C1=C(C)NC2=C(C(=O)C(C(=O)OCC)C(c3ccccc3OC)C2)C1c1ccccn1 (centres undefined)	–	4.58
NC(=O)N/N=C/c1ccccc1OC(=O)c1cc2ccccc2oc1=O	> 50 µM (inactive)	–
CCOC(=O)c1c(N)n(CCOC(=O)c2cccs2)c2nc3ccccc3nc12	–	4.41
Oc1ccccc1/C=N/Nc1cc(N2CCCC2)nc(N2CCCC2)n1	> 50 µM (inactive)	–
N#Cc1cc2c(ccc3ccccc32)oc1=O	> 50 µM (inactive)	–
O=C(N/N=C/c1ccc(-c2ccccc2Cl)o1)c1ccccc1	> 50 µM (inactive)	–
Cc1c(O)c(CN2CCCCC2)cc2c3c(c(=O)oc12)CCC3	–	5.04
Cc1ccccc1-n1cnc2cc(NCc3cccs3)ccc21	> 50 µM (inactive)	–
COc1ccc(OC)c(N(CC(=O)O)S(=O)(=O)c2ccc(OC)c(OC)c2)c1	> 50 µM (inactive)	–
CCCn1c(=N)c(C(=O)NCc2ccc3c(c2)OCO3)cc2c(=O)n3cccc(C)c3nc21	–	4.99
CC(=O)c1sc2nc(C)c3c(c2c1N)CCCC3	–	4.81
CC(=O)O/N=C/c1c(Cl)n(C)c2ccccc12	> 50 µM (inactive)	–
CCc1nc(N)c(C#N)c(-c2ccc(F)cc2)c1C	> 50 µM (inactive)	–
COC(=O)C1=CN(Cc2ccccc2)C=C(C(=O)OC)C1c1cc(F)ccc1F	–	4.80
O=C(c1cc(COc2ccc(F)cc2Cl)on1)N1CCCC(c2ccccc2)C1 (centres undefined)	> 50 µM (inactive)	–
CN(Cc1cnc2nc(N)nc(N)c2n1)c1ccc(C(=O)N[C@@H](CCC(=O)O)C(=O)O)cc1	> 50 µM (inactive)	–
Cn1c(N/N=C/c2cc3ccccc3nc2Cl)nc2ccccc21	> 120 µM (inactive)	–
COc1ccc(CCn2c(=N)c(C(=O)NCC3CCCO3)cc3c(=O)n4cccc(C)c4nc32)cc1 (centres undefined)	–	4.94
O=c1[nH]c(Nc2ccccn2)cc2ccccc12	> 50 µM (inactive)	–
Cc1ccc(Cl)cc1-n1c(=O)cc(N2CC(C)OC(C)C2)[nH]c1=O (centres undefined)	> 50 µM (inactive)	–
Cc1ccc(-n2c(=O)c(C#N)cc3c(=O)n4ccccc4nc32)cc1	–	5.70
CCCc1n(CC(O)COCc2ccccc2)c2ccccc2[n+]1C (centres undefined)	> 50 µM (inactive)	–
CC(=O)Nc1ccc(S(=O)(=O)NCc2nc(-c3cccc(C)c3)no2)cc1	> 50 µM (inactive)	–

Compound	IC50	pIC50
OCCNc1c2ccccc2nc2c(F)c(F)c(F)c(F)c12	–	4.68
O=C(NCC1CCN(Cc2ccccc2Cl)CC1)Nc1ccccc1F	> 50 µM (inactive)	–
Cc1ccc2cc(C#N)c(N3CCCN(C(=S)NCCCN(C)C)CC3)nc2c1	–	4.65
Cc1cccc(C2=NN(c3ccc(Br)cc3)[C@@H](C(=O)N3CCOC3=O)[C@@H]2c2ccc(F)cc2)c1	–	4.47
Cc1cc(C)c2c(c1)/C(=c1/sc3n(c1=O)CN(c1ccccc1)CN=3)C(=O)N2	> 50 µM (inactive)	–
CS(=O)(=O)c1nsc2nc(=O)c(/C=C3\C=Nc4ccccc43)c(N)n12	–	4.82
COC(=O)CCC(=O)OC1(C)C(=O)C=C2C=C(C3CC3)N(Cc3ccc(OC)cc3)C=C2C1=O (centres undefined)	–	4.57
CCN1CCN(c2cc(=O)n(Cc3ccc(F)cc3)c(=O)[nH]2)CC1	> 50 µM (inactive)	–
Cc1noc(C)c1C(=O)Nc1sc2c(c1C(N)=O)CCC2	> 50 µM (inactive)	–
Oc1nc(Nc2ccc(F)cc2)sc1/C=C1\C=Nc2ccccc21	> 50 µM (inactive)	–
Cn1c2ccccc2c(=O)c2ccc(F)cc21	–	4.90
COCCCNC(=O)/C(C#N)=C/c1c(N2CCN(c3ccccc3)CC2)nc2ccccn2c1=O	–	4.59
Oc1nc(Nc2ccccc2)sc1/C=C1\C=Nc2ccccc21	> 50 µM (inactive)	–
CCN1C(=S)SC(=O)C1=C1C=C(C)N(Cc2ccco2)C(C)=C1	–	4.95
COCCCn1c(N)c(C(=O)OC(C)COC)c2nc3ccccc3nc21 (centres undefined)	–	4.61
COc1c2ccccc2nc2ccccc12	–	5.07
Nc1nc(CSc2nnnn2-c2ccc(Cl)cc2)nc(N2CCOCC2)n1	> 50 µM (inactive)	–
Cc1cc(C(=O)COC(=O)c2nc3nccc(C)n3n2)c(C)n1CC1CCCO1 (centres undefined)	> 50 µM (inactive)	–
COc1cc(C(=O)NCCCNc2nc3cc(C)cc(C)c3cc2C#N)cc(OC)c1OC	–	4.53
Cc1c(Cl)c([N+](=O)[O-])nn1CCCC(=O)Nc1sc2c(c1C(N)=O)CCC(C)C2 (centres undefined)	> 50 µM (inactive)	–
CCN1CCc2nc(NC(=O)CC(c3ccccc3)c3ccccc3)sc2C1	–	4.63
COc1ccc(CCNC(=O)c2cc3c(=O)n4cccc(C)c4nc3n(CCCN3CCOCC3)c2=N)cc1	–	5.31
N#C/C(=C\c1ccc(O)c(Br)c1)C(=O)NCc1ccccc1	–	4.59
CC(=O)c1ccc(-c2cccs2)s1	–	4.46
CCOC(=O)c1c(NC(=O)C2CCCCC2)sc2c1CCN(CC)C2	> 50 µM (inactive)	–
N#Cc1c(N)n(CCOC(=O)c2ccc(Cl)cc2)c2nc3ccccc3nc12	–	5.43
